# According to ChEMBL document CHEMBL3885861, “Open TG-GATES”:
# Species on record: Rattus norvegicus
# Assay: Open TG-GATES - Regimen: Daily Repeat
# Format: toxicity, organism-based, Sprague-Dawley
# Parameters: regimen Daily Repeat, gender Male, age 6 weeks
# Details: in vivo, po, 45 mg/kg, route gavage, dose level High; for APTT / Bas / Eos / Fbg / Hb / Ht / Lym / MCH / MCHC / MCV / Mono / Neu / PT / Plat / RBC / Ret / WBC: tissue Blood; for KIDNEY_L / KIDNEY_R / KIDNEY_TOTAL: tissue Kidney; for LIVER: tissue Liver; for A/G / ALP / ALT / AST / BUN / CRE / Ca / Cl / DBIL / GLC / IP / K / LDH / Na / PL / RALB / TBIL / TC / TG / TP / gamma-GTP: tissue Plasma
smiles,measurement,setting,value
CC(=N)S [THIOACETAMIDE],TERMINAL_BW,"72 h, time 3 day",211.8 g
same,APTT,"72 h, time 3 day",17.5 s
same,Bas,"72 h, time 3 day",0%
same,Eos,"72 h, time 3 day",1.4%
same,Fbg,"72 h, time 3 day",296 mg/dL
same,Hb,"72 h, time 3 day",14.4 g/dL
same,Ht,"72 h, time 3 day",44%
same,Lym,"72 h, time 3 day",75.4%
same,MCH,"72 h, time 3 day",20.3 pg
same,MCHC,"72 h, time 3 day",32.8%
same,MCV,"72 h, time 3 day",62.1 fL
same,Mono,"72 h, time 3 day",9.2%
same,Neu,"72 h, time 3 day",14%
same,PT,"72 h, time 3 day",12.4 s
same,Plat,"72 h, time 3 day",112.5 x10_4/uL
same,RBC,"72 h, time 3 day",711.2 x10_4/ul
same,Ret,"72 h, time 3 day",4.8%
same,WBC,"72 h, time 3 day",144.4 x10_2/uL
same,KIDNEY_L,"72 h, time 3 day",1 g
same,KIDNEY_R,"72 h, time 3 day",1.1 g
same,KIDNEY_TOTAL,"72 h, time 3 day",2.1 g
same,LIVER,"72 h, time 3 day",12.3 g
same,A/G,"72 h, time 3 day",1.8
same,ALP,"72 h, time 3 day",923.2 IU/L
same,ALT,"72 h, time 3 day",47.8 IU/L
same,AST,"72 h, time 3 day",179.6 IU/L
same,BUN,"72 h, time 3 day",16.4 mg/dL
same,CRE,"72 h, time 3 day",0.6 mg/dL
same,Ca,"72 h, time 3 day",10.9 mg/dL
same,Cl,"72 h, time 3 day",104.2 meq/L
same,DBIL,"72 h, time 3 day",0.086 mg/dL
same,GLC,"72 h, time 3 day",174.8 mg/dL
same,IP,"72 h, time 3 day",8.1 mg/dL
same,K,"72 h, time 3 day",5.1 meq/L
same,LDH,"72 h, time 3 day",338.2 IU/L
same,Na,"72 h, time 3 day",136 meq/L
same,PL,"72 h, time 3 day",189.8 mg/dL
same,RALB,"72 h, time 3 day",3.7 g/dL
same,TBIL,"72 h, time 3 day",0.3 mg/dL
same,TC,"72 h, time 3 day",102 mg/dL
same,TG,"72 h, time 3 day",115.4 mg/dL
same,TP,"72 h, time 3 day",5.8 g/dL
same,gamma-GTP,"72 h, time 3 day",2.2 IU/L
same,TERMINAL_BW,"[…], time 7 day",217.5 g
same,TERMINAL_BW,"[…], time 14 day",249.4 g
same,TERMINAL_BW,"[…], time 28 day",277.2 g
same,APTT,"[…], time 7 day",16.5 s
same,Bas,"[…], time 7 day",0%
same,Eos,"[…], time 7 day",1%
same,Fbg,"[…], time 7 day",236 mg/dL
same,Hb,"[…], time 7 day",14.7 g/dL
same,Ht,"[…], time 7 day",44%
same,Lym,"[…], time 7 day",81%
same,MCH,"[…], time 7 day",20.1 pg
same,MCHC,"[…], time 7 day",33.5%
same,MCV,"[…], time 7 day",60 fL
same,Mono,"[…], time 7 day",5.6%
same,Neu,"[…], time 7 day",12.6%
same,PT,"[…], time 7 day",14.3 s
same,Plat,"[…], time 7 day",159.2 x10_4/uL
same,RBC,"[…], time 7 day",734.2 x10_4/ul
same,Ret,"[…], time 7 day",2%
same,WBC,"[…], time 7 day",180.4 x10_2/uL
same,APTT,"[…], time 14 day",16.7 s
same,Bas,"[…], time 14 day",0%
same,Eos,"[…], time 14 day",1%
same,Fbg,"[…], time 14 day",228.4 mg/dL
same,Hb,"[…], time 14 day",14.7 g/dL
same,Ht,"[…], time 14 day",43.7%
same,Lym,"[…], time 14 day",77.8%
same,MCH,"[…], time 14 day",19.7 pg
same,MCHC,"[…], time 14 day",33.5%
same,MCV,"[…], time 14 day",58.9 fL
same,Mono,"[…], time 14 day",5.4%
same,Neu,"[…], time 14 day",16.2%
same,PT,"[…], time 14 day",14.4 s
same,Plat,"[…], time 14 day",123.1 x10_4/uL
same,RBC,"[…], time 14 day",742.6 x10_4/ul
same,Ret,"[…], time 14 day",2.7%
same,WBC,"[…], time 14 day",176.2 x10_2/uL
same,APTT,"[…], time 28 day",17.6 s
same,Bas,"[…], time 28 day",0%
same,Eos,"[…], time 28 day",0.6%
same,Fbg,"[…], time 28 day",218 mg/dL
same,Hb,"[…], time 28 day",15.6 g/dL
same,Ht,"[…], time 28 day",45.4%
same,Lym,"[…], time 28 day",71.6%
same,MCH,"[…], time 28 day",18.8 pg
same,MCHC,"[…], time 28 day",34.5%
same,MCV,"[…], time 28 day",54.3 fL
same,Mono,"[…], time 28 day",6.6%
same,Neu,"[…], time 28 day",21%
same,PT,"[…], time 28 day",14 s
same,Plat,"[…], time 28 day",110.9 x10_4/uL
same,RBC,"[…], time 28 day",835.6 x10_4/ul
same,Ret,"[…], time 28 day",2.6%
same,WBC,"[…], time 28 day",183.8 x10_2/uL
same,KIDNEY_L,"[…], time 7 day",1 g
same,KIDNEY_R,"[…], time 7 day",1 g
same,KIDNEY_TOTAL,"[…], time 7 day",2 g
same,KIDNEY_L,"[…], time 14 day",1.2 g
same,KIDNEY_R,"[…], time 14 day",1.2 g
same,KIDNEY_TOTAL,"[…], time 14 day",2.3 g
same,KIDNEY_L,"[…], time 28 day",1.2 g
same,KIDNEY_R,"[…], time 28 day",1.2 g
same,KIDNEY_TOTAL,"[…], time 28 day",2.4 g
same,LIVER,"[…], time 7 day",11.1 g
same,LIVER,"[…], time 14 day",12.4 g
same,LIVER,"[…], time 28 day",14.3 g
same,A/G,"[…], time 7 day",1.9
same,ALP,"[…], time 7 day",946.4 IU/L
same,ALT,"[…], time 7 day",23.4 IU/L
same,AST,"[…], time 7 day",47 IU/L
same,BUN,"[…], time 7 day",18.4 mg/dL
same,CRE,"[…], time 7 day",0.5 mg/dL
same,Ca,"[…], time 7 day",10.4 mg/dL
same,Cl,"[…], time 7 day",105.4 meq/L
same,DBIL,"[…], time 7 day",0.026 mg/dL
same,GLC,"[…], time 7 day",164.2 mg/dL
same,IP,"[…], time 7 day",7.3 mg/dL
same,K,"[…], time 7 day",4.8 meq/L
same,LDH,"[…], time 7 day",192.8 IU/L
same,Na,"[…], time 7 day",136 meq/L
same,PL,"[…], time 7 day",137 mg/dL
same,RALB,"[…], time 7 day",3.6 g/dL
same,TBIL,"[…], time 7 day",0.2 mg/dL
same,TC,"[…], time 7 day",69.8 mg/dL
same,TG,"[…], time 7 day",57.2 mg/dL
same,TP,"[…], time 7 day",5.5 g/dL
same,gamma-GTP,"[…], time 7 day",2 IU/L
same,A/G,"[…], time 14 day",2.3
same,ALP,"[…], time 14 day",1052 IU/L
same,ALT,"[…], time 14 day",26 IU/L
same,AST,"[…], time 14 day",67 IU/L
same,BUN,"[…], time 14 day",18.6 mg/dL
same,CRE,"[…], time 14 day",0.6 mg/dL
same,Ca,"[…], time 14 day",10.2 mg/dL
same,Cl,"[…], time 14 day",105 meq/L
same,DBIL,"[…], time 14 day",0.08 mg/dL
same,GLC,"[…], time 14 day",165.8 mg/dL
same,IP,"[…], time 14 day",7.3 mg/dL
same,K,"[…], time 14 day",4.3 meq/L
same,LDH,"[…], time 14 day",161 IU/L
same,Na,"[…], time 14 day",135 meq/L
same,PL,"[…], time 14 day",154 mg/dL
same,RALB,"[…], time 14 day",3.7 g/dL
same,TBIL,"[…], time 14 day",0.3 mg/dL
same,TC,"[…], time 14 day",74.4 mg/dL
same,TG,"[…], time 14 day",83 mg/dL
same,TP,"[…], time 14 day",5.3 g/dL
same,gamma-GTP,"[…], time 14 day",2.4 IU/L
same,A/G,"[…], time 28 day",1.9
same,ALP,"[…], time 28 day",1032 IU/L
same,ALT,"[…], time 28 day",31.2 IU/L
same,AST,"[…], time 28 day",76 IU/L
same,BUN,"[…], time 28 day",20.8 mg/dL
same,CRE,"[…], time 28 day",0.6 mg/dL
same,Ca,"[…], time 28 day",9.9 mg/dL
same,Cl,"[…], time 28 day",106 meq/L
same,DBIL,"[…], time 28 day",0.2 mg/dL
same,GLC,"[…], time 28 day",148.8 mg/dL
same,IP,"[…], time 28 day",6.3 mg/dL
same,K,"[…], time 28 day",4.4 meq/L
same,LDH,"[…], time 28 day",195.4 IU/L
same,Na,"[…], time 28 day",134 meq/L
same,PL,"[…], time 28 day",138.4 mg/dL
same,RALB,"[…], time 28 day",3.5 g/dL
same,TBIL,"[…], time 28 day",0.3 mg/dL
same,TC,"[…], time 28 day",61.4 mg/dL
same,TG,"[…], time 28 day",20.8 mg/dL
same,TP,"[…], time 28 day",5.4 g/dL
same,gamma-GTP,"[…], time 28 day",6 IU/L
